Source: article PMC5630639 (Scientific Reports, 2017)
Entries after “also recorded” stand apart in the source; their conditions may differ.

Legend:
MGC-803 cells [1] = assay: Cell cycle analysis by flow cytometry; assay type: cell-based, human; conditions: for G2/M population: 24 h (Fig. 3A)
Procedure: MGC-803 cells were incubated in the absence and presence of 28. Subsequently, the cells were fixed with 70% alcohol in PBS. The fixed cells were incubated with RNase (1 µg/mL) propidium iodide (50 µg/mL) for 2 h. Flow cytometry analysis was performed using BD FACS (Becton Dickinson, San Jose, CA, USA).

MGC-803 cells [2] = assay: Western blot of EMT-related markers; assay type: cell-based, human
Procedure: In a transwell test, the average numbers of migrated cells in fields of control, 0.1 and 0.2 μM 28 treated MGC-803 cells were 29.4, 22.4 and 16.6, respectively (Fig. 6B and C). Based on the results from these tests, we next examined the protein expression of EMT-related makers such as E-cadherenin, N-cadherenin, ZO-1 and Vementin[55].

MGC-803 xenograft = MGC-803 xenograft model in nude mice; assay type: in vivo, BALB/c nude mice; conditions: for average tumor weight: 21 days (control 1.23 ± 0.28); for mean tumor volume at end of observation period: 21 days (control 1665.98 ± 568.36)
Procedure: To evaluate the potential antitumor effects of 28 in vivo, a MGC-803 xenograft model were established in nude mice by subcutaneously injecting MGC-803 cells at its logarithmic phase into the right flank of mice[56]. Tumor bearing mice were then randomly assigned to five groups (control, 100 mg/kg CA-4P, 25, 50, 100 mg/kg 28) with 10 mice per group. Then, the mice were gavaged with saline (control), CA-4P and different concentrations of 28 in saline solution daily. […] At the end of the observation period, mean tumor volumes of control, CA-4P, 25, 50, and 100 mg/kg 28 groups were 1665.98 ± 568.36 mm^3, 642.61 ± 449.92 mm^3, 788.18 ± 435.92 mm^3, 1125.93 ± 668.25 mm^3 and 1273.88 ± 513.69 mm^3, respectively. […] The antitumor activity of 28 in vivo was similar to that of CA-4P.
Animals were treated according to protocols established by the ethics committee of Zhengzhou University and the in vivo experiments were carried out in accordance with the approved guidelines and approved by the ethics committee of Zhengzhou University. BALB/c nude mice (18 g, aged 4–5 weeks) were purchased from Human SJA Laboratory Animal Co. Ltd. (Hunan, China). Mice were subcutaneously implanted with MGC-803 cells (5 × 10^6 cells per mouse) on the right flank of nude mice. Once tumor volumes reached to approximately 100 mm^3, the mice were randomly divided into corresponding saline, CA-4P (100 mg/kg), 28 (100 mg/kg), 28 (50 mg/kg) and 28 (25 mg/kg) treatment groups (n = 10 mice for each group). The treatment groups received intragastric administration of 28 and CA-4P per day for a period of 21 days. Then, the mice were euthanized and tumors isolated and weighed. Their body weights were measured and tumor sizes determined by vernier caliper measurement every other day.

MGC-803 cells [3] = assay: CCK-8 proliferation assay, MGC-803; assay type: cell-based, human; conditions: Homo sapiens, MGC-803; 48 h, CCK-8, mean ± SD
Procedure: (§1) All synthesized β-lactam-azide derivatives were evaluated for their antiproliferative activity against three cancer cell lines (MGC-803, MCF-7, A549) using CCK-8 proliferation assay. The well-known anticancer drug CA-4P was used as a control[36],[37].
(§2) MGC-803 cell line was obtained from the Chinese Academy of Sciences (Shanghai, China). MCF-7 and A549 were from the National Cell Center, China. MGC-803 cells were cultured in DMEM culture medium (DMEM, Biological Industries, Kibbutz Beit Haemek, Israel). A549 and MCF-7 cells were cultured in 1640 medium (1640, Biological Industries, Kibbutz Beit Haemek, Israel). All medium were supplemented with 10% fetal bovine serum, 100 U/ml penicillin (North China Pharmaceutical group Co.), and 100 µg/ml streptomycin (North China Pharmaceutical group Co.). All cells were cultured at 37 °C in a humidified incubator containing 5% CO2.
(§3) Synthesized analogues used in the study were dissolved in 100% cell culture grade DMSO and the final concentration of DMSO as <0.1% for testing on cancer cell lines. Cytotoxicity assays were performed on the human gastric carcinoma cell line MGC-803, the human mammary carcinoma cell line MCF-7, the human lung carcinoma cell line A549. Cells (3500–5000/well) were seeded into 96-well plates in 100 µL of culture medium. The cells were treated in triplicate with a gradient concentration of testing compounds and incubated at 37 °C, 5% CO2 for 48 h. For all cell lines, CCK-8 assay was performed to measure cytotoxic effects. The absorbance was measured using a microplate reader (BioTek Instrument, Inc. Vermont, USA) with a test wavelength of 450 nm. The absorbance levels were corrected against untreated control absorbance values. All experiments were performed in triplicate and SPSS17.0 was used for data analysis to obtain IC50 values.

tubulin = assay: In vitro tubulin polymerization assay; assay type: biochemical; conditions: 5.6 mg/ml tubulin, absorbance 340 nm, 37 °C; read-out: tubulin polymerization inhibition IC50
Procedure: The in vitro tubulin polymerization inhibitory activity of 28 was then evaluated. Purified and unpolymerized tubulin was incubated with 28 at indicated concentrations, and tubulin polymerization was measured by the method originally described by D. Bone et al.[46].
An amount of 5.6 mg/ml tubulin was resuspended in PEM buffer [80 mM PIPES (pH 6.9), 1 mM EGTA, 0.5 mM MgCl2, 1 mM […], 10.2% (v/v) glycerol] and then was preincubated with compound 28 or vehicle DMSO on ice. The reaction was monitored by a spectrophotometer in absorbance at 340 nm at 37 °C every 5 min. The final concentrations of 28 were listed as follows: 0, 1, 2, and 4 µM.

[4] = test system: three cancer cell lines (MGC-803, MCF-7, A549); assay: CCK-8 proliferation assay, three cancer cell lines together; assay type: cell-based; conditions: Homo sapiens, 48 h, read-out: IC50 values toward three cancer cell lines
Procedure: as §1, §2
Synthesized analogues used in the study were dissolved in 100% cell culture grade DMSO and the final concentration of DMSO as <0.1% for testing on cancer cell lines. […] The absorbance was measured using a microplate reader (BioTek Instrument, Inc. Vermont, USA) with a test wavelength of 450 nm. The absorbance levels were corrected against untreated control absorbance values. […]

[5] = test system: colchicine-binding site of β-tubulin; assay: EBI competition assay; assay type: cell-based, human; conditions: preincubation 0.25 and 5 μM, 2 h; EBI 100 μM
Procedure: Six-well plates were seeded with MGC-803 cells at 5 × 10^5 cells per well. […] After 2 h, the cells were harvested and cell extracts were prepared for Western blot analysis. 20 μg of proteins was subjected to gel electrophoresis using 10% polyacrylamide gels. The proteins were transferred onto PVDF membranes, then blocked by 5% nonfatmilk for 1 h, and subsequently incubated with anti-β-tubulin antibody for 16 h at 4 °C. Next, the membranes were washed extensively and immunoreactive proteins were finally detected by chemiluminescence.

A549 cells = assay: CCK-8 proliferation assay, A549; assay type: cell-based, human; conditions: Homo sapiens, A549; 48 h, CCK-8, mean ± SD
Procedure: as §1, §2, §3

## COc1cc(N2C(=O)[C@H](c3cccs3)[C@H]2c2cccc(N=[N+]=[N-])c2)cc(OC)c1OC (relative stereo) [Compound 28, trans-4-(3-azidophenyl)-3-(thiophen-2-yl)-1-(3,4,5-trimethoxyphenyl)azetidin-2-one]
MGC-803 cells [1]; 0.1 μM, 12 h (Fig. 3C)
  cells at the G2/M phase: 12.63%
MGC-803 cells [1]; 0.1 μM
  G2/M population: 14.13%
MGC-803 cells [1]; 0.1 μM, 36 h (Fig. 3C)
  cells at the G2/M phase: 44.59%
MGC-803 cells [1]; 0.2 μM
  G2/M population: 23.42%
MGC-803 cells [1]; 0.3 μM
  G2/M population: 44.37%
MGC-803 cells [2]
  expression of E-cadherin and ZO-1: up-regulated
  expression of N-cadherin and vimentin: down-regulated
MGC-803 xenograft; 25 mg/kg, intragastric daily, 21 days
  inhibitory rate (tumor weight): 59.34%
MGC-803 xenograft; 25 mg/kg, intragastric daily
  average tumor weight: 0.53 ± 0.20 g
  mean tumor volume at end of observation period: 788.18 ± 435.92 mm^3
MGC-803 xenograft; 50 mg/kg, intragastric daily, 21 days
  inhibitory rate (tumor weight): 30.78%
MGC-803 xenograft; 50 mg/kg, intragastric daily
  average tumor weight: 0.85 ± 0.32 g
  mean tumor volume at end of observation period: 1125.93 ± 668.25 mm^3
MGC-803 xenograft; 100 mg/kg, intragastric daily
  tumor growth: considerable suppression of tumor growth
  average tumor weight: 1.09 ± 0.31 g
  mean tumor volume at end of observation period: 1273.88 ± 513.69 mm^3
MGC-803 xenograft; 100 mg/kg, intragastric daily, 21 days
  inhibitory rate (tumor weight): 10.99%
MGC-803 xenograft; oral administration, 21 days
  body weight of mice: without causing significant loss of body weight; also recorded: without causing any obvious loss of body weight
MGC-803 cells [3]
  IC50: 106 ± 1 nM
tubulin
  IC50: 2260 nM
[4]
  IC50: 106 to 507 nM
[5]
  formation of the EBI: β-tubulin adduct: dose-dependently prevented the formation of the EBI: β-tubulin adduct
A549 cells
  IC50: 507 ± 52 nM
